Laboratory results as given in ChEMBL document CHEMBL4350989, “Discovery of 2,4-diarylaminopyrimidine derivatives bearing dithiocarbamate moiety as novel FAK inhibitors with antitumor and anti-angiogenesis activities” (Eur J Med Chem, 2019).
Blank lines part the entries; values can stand above or below the compound they belong to.

Key:
MCF7 = assay: Antiproliferative activity against human MCF7 cells overexpressing FAK assessed as reduction in cell viability after 72 hrs by MTS assay; settings: MCF7, 72 h
HCT-116 = assay: Antiproliferative activity against human HCT116 cells overexpressing FAK assessed as reduction in cell viability after 72 hrs by MTS assay; settings: HCT-116, 72 h
PC-3 = assay: Antiproliferative activity against human PC3 cells overexpressing FAK assessed as reduction in cell viability after 72 hrs by MTS assay; settings: PC-3, 72 h
U-87 MG = assay: Antiproliferative activity against human U87MG cells overexpressing FAK assessed as reduction in cell viability after 72 hrs by MTS assay
MCF-10A = assay: Cytotoxicity against human MCF10A cells assessed as reduction in cell viability after 72 hrs by MTS assay

SMILES: CCOC(=O)C(=O)CSC(=S)N1CCN(C(=O)c2ccc(Nc3ncc(Cl)c(Nc4ccccc4C(=O)NC)n3)cc2)CC1
- IC50 (MCF7): 0.52 µM
- IC50 (HCT-116): 0.06 µM
- IC50 (PC-3): 0.47 µM
- IC50 (U-87 MG): 1.16 µM

SMILES: CNC(=O)c1ccccc1Nc1nc(Nc2ccc(C(=O)N3CCN(C(=S)SCCOC)CC3)cc2)ncc1Cl
- IC50 (MCF7): 0.3 µM
- IC50 (HCT-116): 0.04 µM
- IC50 (PC-3): 0.46 µM
- IC50 (U-87 MG): 0.61 µM

SMILES: CNC(=O)c1ccc(Nc2ncc(C(F)(F)F)c(NCc3nccnc3N(C)S(C)(=O)=O)n2)cc1 [DEFACTINIB]
- IC50 (MCF7): 8.97 to 9.76 µM
- IC50 (MCF-10A): 18.4 µM
- IC50 (HCT-116): 2.65 to 3.02 µM
- IC50 (PC-3): > 20 µM
- IC50 (U-87 MG): 10.2 to 10.3 µM

SMILES: CNC(=O)c1ccccc1Nc1nc(Nc2ccc(C(=O)N3CCN(C(=S)SCCN(C)C)CC3)cc2)ncc1OC
- IC50 (MCF7): 0.36 µM
- IC50 (MCF-10A): 2.43 µM
- IC50 (HCT-116): 0.16 µM
- IC50 (PC-3): 0.92 µM
- IC50 (U-87 MG): 1.61 µM

SMILES: CNC(=O)c1ccccc1Nc1nc(Nc2ccc(C(=O)N3CCN(C(=S)SCCN4CCOCC4)CC3)cc2)ncc1Cl
- IC50 (MCF7): 0.33 µM
- IC50 (HCT-116): 3.52 µM
- IC50 (PC-3): 0.23 µM
- IC50 (U-87 MG): 0.47 µM

SMILES: CNC(=O)c1ccccc1Nc1nc(Nc2ccc(C(=O)N3CCN(C(=S)SCCC#N)CC3)cc2)ncc1Cl
- IC50 (MCF7): 7.17 µM
- IC50 (HCT-116): 0.03 µM
- IC50 (PC-3): 0.17 µM
- IC50 (U-87 MG): 1.73 µM

SMILES: CNC(=O)c1ccccc1Nc1ccnc(Nc2ccc(C(=O)N3CCN(C(=S)SCCN(C)C)CC3)cc2)n1
- IC50 (MCF7): 2.01 µM
- IC50 (MCF-10A): 6.19 µM
- IC50 (HCT-116): 0.44 µM
- IC50 (PC-3): 3.01 µM
- IC50 (U-87 MG): 2.8 µM

SMILES: CNC(=O)c1ccccc1Nc1nc(Nc2ccc(C(=O)N3CCN(C(=S)SCc4ccncc4)CC3)cc2)ncc1Cl
- IC50 (MCF7): 0.77 µM
- IC50 (HCT-116): 0.06 µM
- IC50 (PC-3): 0.36 µM
- IC50 (U-87 MG): 1.7 µM

SMILES: CCOC(=O)CSC(=S)N1CCN(C(=O)c2ccc(Nc3ncc(Cl)c(Nc4ccccc4C(=O)NC)n3)cc2)CC1
- IC50 (MCF7): 9.93 µM
- IC50 (HCT-116): 4.69 µM
- IC50 (PC-3): 3.53 µM
- IC50 (U-87 MG): 7.54 µM

SMILES: C=CCSC(=S)N1CCN(C(=O)c2ccc(Nc3ncc(Cl)c(Nc4ccccc4C(=O)NC)n3)cc2)CC1
- IC50 (MCF7): 1.38 µM
- IC50 (HCT-116): 0.11 µM
- IC50 (PC-3): 1.02 µM
- IC50 (U-87 MG): > 20 µM

SMILES: CNC(=O)c1ccccc1Nc1nc(Nc2ccc(C(=O)N3CCN(C(=S)SCCc4ccccc4)CC3)cc2)ncc1Cl
- IC50 (MCF7): 11.7 µM
- IC50 (HCT-116): 3.78 µM
- IC50 (PC-3): > 20 µM
- IC50 (U-87 MG): > 20 µM

SMILES: CNC(=O)c1ccccc1Nc1nc(Nc2ccc(N3CCOCC3)cc2OC)ncc1Cl
- IC50 (MCF7): 0.45 to 0.56 µM
- IC50 (MCF-10A): 8.76 µM
- IC50 (HCT-116): 0.29 to 0.46 µM
- IC50 (PC-3): 1.21 to 1.68 µM
- IC50 (U-87 MG): 1.58 to 1.66 µM

SMILES: CNC(=O)c1ccccc1Nc1nc(Nc2ccc(C(=O)N3CCN(C(=S)SCCS(C)(=O)=O)CC3)cc2)ncc1Cl
- IC50 (MCF7): 0.4 µM
- IC50 (HCT-116): 0.03 µM
- IC50 (PC-3): 0.52 µM
- IC50 (U-87 MG): 0.92 µM

SMILES: CNC(=O)c1ccccc1Nc1nc(Nc2ccc(C(=O)N3CCN(C(=S)SCCN4CCCCC4)CC3)cc2)ncc1Cl
- IC50 (MCF7): 0.27 µM
- IC50 (HCT-116): 0.01 µM
- IC50 (PC-3): 0.38 µM
- IC50 (U-87 MG): 0.28 µM

SMILES: CNC(=O)c1ccccc1Nc1nc(Nc2ccc(C(=O)N3CCN(C(=S)SCc4ccccc4)CC3)cc2)ncc1Cl
- IC50 (MCF7): > 20 µM
- IC50 (HCT-116): 0.05 µM
- IC50 (PC-3): 17 µM
- IC50 (U-87 MG): 3.36 µM

SMILES: CNC(=O)c1ccccc1Nc1nc(Nc2ccc(C(=O)N3CCN(C(=S)SCc4cccnc4)CC3)cc2)ncc1Cl
- IC50 (MCF7): 0.39 µM
- IC50 (HCT-116): 0.03 µM
- IC50 (PC-3): 0.45 µM
- IC50 (U-87 MG): 1.53 µM

SMILES: CNC(=O)c1ccccc1Nc1nc(Nc2ccc(C(=O)N3CCN(C(=S)SCC4CCOCC4)CC3)cc2)ncc1Cl
- IC50 (MCF7): 0.54 µM
- IC50 (HCT-116): 0.09 µM
- IC50 (PC-3): 0.31 µM
- IC50 (U-87 MG): > 20 µM

SMILES: CNC(=O)c1ccccc1Nc1nc(Nc2ccc(C(=O)N3CCN(C(=S)SCc4ccccn4)CC3)cc2)ncc1Cl
- IC50 (MCF7): 0.39 µM
- IC50 (HCT-116): 0.06 µM
- IC50 (PC-3): 0.4 µM
- IC50 (U-87 MG): 2.53 µM

SMILES: CNC(=O)c1ccccc1Nc1nc(Nc2ccc(C(=O)N3CCN(C(=S)SCCC(=O)OC)CC3)cc2)ncc1Cl
- IC50 (MCF7): 2.29 µM
- IC50 (HCT-116): 0.26 µM
- IC50 (PC-3): 1.99 µM
- IC50 (U-87 MG): 1.31 µM

Stronger by IC50 (MCF7), values ahead:

- IC50 (MCF7): 0.16 µM
- IC50 (HCT-116): 0.03 µM
- IC50 (PC-3): 0.36 µM
- IC50 (U-87 MG): 0.69 µM
SMILES: CNC(=O)c1ccccc1Nc1nc(Nc2ccc(C(=O)N3CCN(C(=S)SCCN(C)C)CC3)cc2)ncc1F
- IC50 (MCF-10A): 1.75 µM

- IC50 (MCF7): 0.22 µM
- IC50 (HCT-116): 0.01 µM
- IC50 (PC-3): 0.26 µM
- IC50 (U-87 MG): 0.62 µM
SMILES: CNC(=O)c1ccccc1Nc1nc(Nc2ccc(C(=O)N3CCN(C(=S)SCCN4CCN(C)CC4)CC3)cc2)ncc1Cl

- IC50 (MCF7): 0.11 µM
- IC50 (HCT-116): 0.03 µM
- IC50 (PC-3): 0.2 µM
- IC50 (U-87 MG): 0.87 µM
SMILES: CNC(=O)c1ccccc1Nc1nc(Nc2ccc(C(=O)N3CCN(C(=S)SCC(C)O)CC3)cc2)ncc1Cl (stereo not given)

- IC50 (MCF7): 0.08 µM
- IC50 (HCT-116): 0.01 µM
- IC50 (PC-3): 0.27 µM
- IC50 (U-87 MG): 0.28 µM
SMILES: CNC(=O)c1ccccc1Nc1nc(Nc2ccc(C(=O)N3CCN(C(=S)SCCN(C)C)CC3)cc2)ncc1C
- IC50 (MCF-10A): 1.08 µM

- IC50 (MCF7): 0.16 µM
- IC50 (HCT-116): 0.01 µM
- IC50 (PC-3): 0.22 µM
- IC50 (U-87 MG): 0.2 µM
SMILES: CNC(=O)c1ccccc1Nc1nc(Nc2ccc(C(=O)N3CCN(C(=S)SCCN4CCCC4)CC3)cc2)ncc1Cl

- IC50 (MCF7): 0.08 to 0.09 µM
- IC50 (HCT-116): 0.004 µM
- IC50 (PC-3): 0.09 µM
- IC50 (U-87 MG): 0.2 to 0.36 µM
SMILES: CNC(=O)c1ccccc1Nc1nc(Nc2ccc(C(=O)N3CCN(C(=S)SCCN(C)C)CC3)cc2)ncc1Cl
- IC50 (MCF-10A): 0.72 µM

- IC50 (MCF7): 0.21 µM
- IC50 (HCT-116): 0.05 µM
- IC50 (PC-3): 0.69 µM
- IC50 (U-87 MG): 2.74 µM
SMILES: CNC(=O)c1ccccc1Nc1nc(Nc2ccc(C(=O)N3CCN(C(=S)SCCC4OCCO4)CC3)cc2)ncc1Cl

- IC50 (MCF7): 0.11 µM
- IC50 (HCT-116): 0.02 µM
- IC50 (PC-3): 0.24 µM
- IC50 (U-87 MG): 0.71 µM
SMILES: CNC(=O)c1ccccc1Nc1nc(Nc2ccc(C(=O)N3CCN(C(=S)SCCO)CC3)cc2)ncc1Cl
